Literature values, collected in patent US20220361717A1, “Anti-Pathogenic Hand Sanitization Station” (priority 2021, published 2022).
Entries after “also recorded” stand apart in the source; their conditions may differ.

Tests used:
[1] = system: Bacteria: Gram-positive; Gram-negative; conditions: copolymerization of antimicrobial monomer and styrene; effect on the potency of the monomer
[2] = system: Bacteria: S. Aureus; P. aeruginosa; E. coli
[3] = system: Bacteria: Pseudomonas aeruginosa; Staphylococccus
Bacteria: E-coli = conditions: value = inhibited species
[4] = system: Bacteria: E. coli; S. aureus; S. typhimurium
[5] = system: Bacteria: Gram-postive bacteria; conditions: homopolymer versus model compound p-ethylbenzyl tetramethylene sulforium tetrafluoroborate
[6] = system: Bacteria: S. aureus; E. coli; conditions: value = inhibited species

## C=CC(=O)Nc1cccc(C)c1
[1]
  Comparison of Polymers with Monomer: styrene decreases

## C=C(C)C(=O)OCC(O)CSc1nnc(C)s1 (stereo not shown)
[2]; homopolymer effectiveness versus the monomer
  Comparison of Polymers with Monomer: more
[2]; value = inhibited species
  Inhibited Microbial Species: Bacteria: S. Aureus;; also recorded: P. aeruginosa;; also recorded: E. coli;

## C=CC(=O)Oc1cc(Cl)ccc1Oc1ccc(Cl)cc1Cl
[3]; homopolymer and copolymers with methyl methacrylate, styrene versus the monomer
  Comparison of Polymers with Monomer: less effective
[3]; value = inhibited species, 'Pseudomonas aeruginosa' wrapped over cells
  Inhibited Microbial Species: Staphylococccus

## C=CC(=O)N1C(C)(C)NC(=O)C1(C)C
Bacteria: E-coli
  Inhibited Microbial Species: Bacteria: E-coli

## C=CC(=O)Oc1ccc(Cl)c2cccnc12
[4]; homopolymer and copolymers with acrylamide versus the monomer
  Comparison of Polymers with Monomer: less effective than
[4]; value = inhibited species
  Inhibited Microbial Species: S. aureus;; also recorded: S. typhimurium

## C=Cc1ccc(C[S+]2CCCC2)cc1
[5]
  Comparison of Polymers with Monomer: is more effective

## C=C(C)C(=O)OCCOC(=O)C(C)CC1(CCCCCCCC)CCC(CCCCCCCC)(CC(C)C(=O)OCCOC(=O)C(=C)C)CC1 (stereo not shown)
[6]
  Inhibited Microbial Species: Bacteria: S. aureus;; also recorded: E. coli
